Experiment in all cases: NCI-60 cell line screen, 48 h
Assay [1] concerns A498 renal.
The subject of assay [2] is ACHN renal.
Assay [3] has as its system HCT-116 colon.
For assay [4], the system named is M14 melanoma.
The subject of assay [5] is NCI-H226 lung.
The subject of assay [6] is NCI-H460 lung.
Assay [7] relates to OVCAR-3 ovarian.
The test system of assay [8] is OVCAR-5 ovarian.
In assay [9] the test system is SF-268 CNS.
Assay [10] concerns SR leukemia.

SMILES strings stand for the structures.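 Exposure lasted 48 hours, with cells grown in 96-well plates and compounds tested at five concentrations. GI50: concentration for 50% inhibition of growth. TGI: total growth inhibition.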

On to `O=C(CN1CCN(c2ccccc2)CC1)N1CCN(c2nnc(-c3ccc(Cl)cc3)c(-c3ccc(Cl)cc3)n2)CC1`, for which the GI50 in [1] was 9.67 µM; in assay [2], 5.59 µM; in assay [3], 4.26 µM; in assay [4], 9.99 µM; in assay [5], above 100 µM; in [6], 7.92 µM. For the same compound, the GI50 in assay [7] was 7.24 µM; in assay [8], above 100 µM; in [9] it was 14.9 µM; in assay [10] it was 1.7 µM. The TGI in [1] is 78 µM; in [2], above 100 µM; in [3], 16.2 µM; in assay [4], above 100 µM; in [5] it was above 100 µM; in assay [6], above 100 µM. For the same compound, the TGI in assay [7] is 41.3 µM; in assay [8], above 100 µM; in assay [9], above 100 µM; in assay [10], 6.62 µM.
Turning to `Nc1ccc(-c2ccc(N)cc2I)c(I)c1`, the GI50 was 10.7 µM in assay [1]; 22.6 µM in assay [2]; 15.2 µM in assay [3]; 12.2 µM in [4]; 17.2 µM in [5]; 19.4 µM in assay [6]. The GI50 in assay [7] is 16.6 µM; in assay [8], 17.5 µM; in assay [9], 20 µM; in [10] it was 5.1 µM. The TGI in [1] worked out at 24.1 µM; in [2], 89.6 µM; in assay [3] it was 32 µM; in [4], 34.4 µM; in assay [5], 45.4 µM; in assay [6], 39.3 µM. In addition, the TGI in assay [7] is 35.3 µM; in assay [8], 54.8 µM; in assay [9], above 100 µM; in [10], 39.8 µM.
Turning to `COC(=O)C(F)C(Br)C(=O)OC` (stereo not given), the TGI in assay [1] came out at 43.9 µM; in assay [2] it was 3.39 µM; in assay [3], 6.09 µM; in assay [4], 13.4 µM; in assay [5], 43.4 µM; in assay [6] it was 39.3 µM. Besides, the TGI in assay [7] turned out to be 4.33 µM; in assay [8], 31.8 µM; in assay [9], 24.4 µM; in assay [10], 3.27 µM.
Regarding `CS(=O)(=O)Nc1ccc(N=Cc2c(O)[nH]c3ccccc23)cc1`, the GI50 in [1], in [2], in [3], in assay [4], in assay [5] and in assay [6] was above 25 µM throughout. In addition, the GI50 in [7], in assay [8], in [9] and in [10] was above 25 µM throughout. Besides, the TGI in assay [1], in [2], in assay [3], in assay [4], in assay [5] and in assay [6] was above 25 µM in each case. The TGI in [7], in assay [8], in assay [9] and in assay [10] was above 25 µM each time.
With `CCN(CC)CC(C(=O)Nc1c(C)cccc1C)/C(C)=N\NC(=O)c1ccncc1` (stereo not given), the TGI in [1], in assay [2], in assay [3], in assay [4], in [5] and in assay [6] was above 100 µM in each case. For the same compound, the TGI in assay [7], in assay [8], in [9] and in assay [10] was above 100 µM in each case.
For `CN(C)CC1CCCCCC(CN(C)C)C1=O` (stereo not given), the GI50 in [1] is 15.1 µM; in [2], 1.07 µM; in assay [3] it was 1.07 µM; in assay [4], 1.19 µM; in assay [5], 9.98 µM; in [6] it was 18 µM. For the same compound, the GI50 in assay [7] is 1.48 µM; in [8], 8.29 µM; in assay [9] it was 7.72 µM; in assay [10], 2.1 µM. The TGI in assay [1] amounted to 29.6 µM; in assay [2], 2.64 µM; in assay [3] it was 3.91 µM; in [4], 11.9 µM; in assay [5] it was 33.3 µM; in assay [6] it was 36.8 µM. Also, the TGI was determined as 5.05 µM in assay [7], 22 µM in assay [8], 23.4 µM in assay [9] and 7.14 µM in assay [10].
For `COCCNc1cc(NC(=O)N2CCCc3cc(CN4CCN(C)CC4=O)c(C=O)nc32)ncc1C#N`, the GI50 in [1] is above 50 µM; in [2] it was 23 µM; in assay [3], 25.6 µM; in [4] it was above 50 µM; in [5] it was above 50 µM; in assay [6] it was above 50 µM. For the same compound, the GI50 in [7], in assay [8], in assay [9] and in [10] was above 50 µM throughout. In addition, the TGI in assay [1], in assay [2], in assay [3], in assay [4], in assay [5] and in assay [6] was above 50 µM throughout. In addition, the TGI in [7], in assay [8], in assay [9] and in [10] was above 50 µM each time.
For the compound `CC(C)C12C=CC(C)(CC1)n1c(=O)c3cc4ccccc4cc3c(=O)n12` (stereo not given), the TGI in assay [1] is 79.1 µM; in assay [2], above 100 µM; in assay [3], above 100 µM; in assay [4] it was above 100 µM; in assay [5], above 100 µM; in assay [6], above 100 µM. Moreover, the TGI in assay [7], in [8], in assay [9] and in assay [10] was above 100 µM throughout.
In the case of `CN(C(=O)c1ccncc1)c1ccccc1`, the TGI in assay [1], in assay [2], in assay [3], in assay [4], in [5] and in assay [6] was above 100 µM each time. Also, the TGI in assay [7], in assay [8], in assay [9] and in [10] was above 100 µM each time.

(Values after PubChem BioAssay (NCI).)
